One test deals with Sphingosine 1-phosphate receptor 1 (Homo sapiens, UniProt P21453). The test can be described thus: S1P1 receptor agonists, dose response, cell-based, agonist mode, 60K MLSMR set (AID 468).
Sphingosine 1-phosphate receptor 1, sequence (P21453 whole entry): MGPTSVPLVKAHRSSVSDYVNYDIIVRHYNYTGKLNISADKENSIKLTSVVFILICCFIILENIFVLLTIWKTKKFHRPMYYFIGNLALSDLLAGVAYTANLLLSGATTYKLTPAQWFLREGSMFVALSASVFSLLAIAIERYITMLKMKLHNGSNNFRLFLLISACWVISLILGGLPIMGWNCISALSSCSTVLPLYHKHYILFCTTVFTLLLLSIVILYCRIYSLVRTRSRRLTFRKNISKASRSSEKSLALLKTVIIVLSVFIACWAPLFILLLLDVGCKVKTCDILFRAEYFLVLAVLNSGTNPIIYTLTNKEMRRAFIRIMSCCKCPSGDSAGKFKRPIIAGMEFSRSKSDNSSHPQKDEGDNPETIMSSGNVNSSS
Conditions: not given
Turning to `CCOC(=O)CN1C(=O)C(C)(C)Oc2ccc(C(=O)Nc3ccccc3OC)cc21` [2-[3-keto-6-[(2-methoxyphenyl)carbamoyl]-2,2-dimethyl-1,4-benzoxazin-4-yl]acetic acid ethyl ester], the EC50 turned out to be 4.29 µM. Still for that read-out and setting: the same measure for `Cc1cc(N2CCN(c3nc4ccccc4s3)CC2)n2ncnc2n1` [2-[4-(5-methyl-[1,2,4]triazolo[1,5-a]pyrimidin-7-yl)-1-piperazinyl]-1,3-benzothiazole]: 7.9 µM; for `Cc1ccc(C(C)C)c(OCc2ccc(-c3nnco3)cc2)c1` [2-[4-[(2-isopropyl-5-methyl-phenoxy)methyl]phenyl]-1,3,4-oxadiazole]: 2.43 µM; for `O=S1(=O)C=C(Sc2nc3ccccc3s2)c2ccccc21` [2-[(1,1-dioxido-1-benzothien-3-yl)thio]-1,3-benzothiazole]: 7.68 µM.

Take `COC(=O)c1sc(NC(=O)c2ccc(OC)cc2OC)nc1C` [2-[(2,4-dimethoxybenzoyl)amino]-4-methyl-thiazole-5-carboxylic acid methyl ester]: the EC50 was 9.63 µM.

`Cc1cc(C=c2sc3nc4ccccc4n3c2=O)c(C)n1-c1ccccn1` [2-[(2,5-dimethyl-1-pyridin-2-yl-pyrrol-3-yl)methylidene]-[1,3]thiazolo[3,2-a]benzimidazol-1-one] gave an EC50 of 0.132 µM. The same measure, in the same setting: then `Cc1ccccc1-c1nnc(SCc2ccccc2F)o1` [2-[(2-fluorobenzyl)thio]-5-(2-methylphenyl)-1,3,4-oxadiazole], with 1.63 µM. On the same count and under the same terms, then `Cc1ccc(-c2nnc(SCc3ccccc3F)o2)cc1` [2-[(2-fluorobenzyl)thio]-5-(4-methylphenyl)-1,3,4-oxadiazole], with 1.78 µM; and `Cc1cccc(N2CCN(C(=O)CSCc3c(C)noc3C)CC2)c1C` [2-[(3,5-dimethyl-1,2-oxazol-4-yl)methylsulfanyl]-1-[4-(2,3-dimethylphenyl)piperazin-1-yl]ethanone], with 4.52 µM; and `CCn1c(SCC(=O)Nc2nc3ccc(C)cc3s2)nc2c(c1=O)SC(C)C2` (stereo unspecified) [2-[(3-ethyl-4-keto-6-methyl-6,7-dihydrothieno[3,2-d]pyrimidin-2-yl)thio]-N-(6-methyl-1,3-benzothiazol-2-yl)acetamide], with 5.59 µM. Consider `Clc1ccc(CSc2nnc(-c3ccncc3)o2)cc1` [2-[(4-chlorobenzyl)thio]-5-(4-pyridyl)-1,3,4-oxadiazole], for which the EC50 came out at 3.92 µM. On the same count and under the same terms, then `Cc1cc(C(=O)CSc2nnc(-c3ccncc3)n2-c2ccccc2)c(C)n1C` [2-[(4-phenyl-5-pyridin-4-yl-1,2,4-triazol-3-yl)sulfanyl]-1-(1,2,5-trimethylpyrrol-3-yl)ethanone], with 2.46 µM; and `CC(C)OC(=O)CSc1nc(N)c(C#N)c(-c2cccs2)c1C#N` [2-[(6-amino-3,5-dicyano-4-thiophen-2-yl-2-pyridinyl)thio]acetic acid propan-2-yl ester], with greater than 10 µM; and `CC(C)(C)C1CCC2(CC1)C(C#N)=C(SCC(=O)Nc1ccccc1)NC(=O)C2C#N` (stereo unspecified) [2-[(9-tert-butyl-1,5-dicyano-2-oxidanylidene-3-azaspiro[5.5]undec-4-en-4-yl)sulfanyl]-N-phenyl-ethanamide], with 4.92 µM.

In turn, `COCCn1c(C)cc(C(=O)CSc2nc3ccccc3c(=O)[nH]2)c1C` [2-[[2-[1-(2-methoxyethyl)-2,5-dimethyl-3-pyrrolyl]-2-oxoethyl]thio]-1H-quinazolin-4-one] registered an EC50 of 61.2 µM. With `COCCn1c(C)cc(C(=O)CSc2nnc(-c3cccnc3)n2-c2ccccc2F)c1C` [2-[[4-(2-fluorophenyl)-5-(3-pyridinyl)-1,2,4-triazol-3-yl]thio]-1-[1-(2-methoxyethyl)-2,5-dimethyl-3-pyrrolyl]ethanone], the half-maximal effective concentration (EC50) was determined as 1.87 µM. On the same count and under the same terms, then `Cc1ccccc1-n1c(SCC(=O)c2cc(C)n(C)c2C)nnc1-c1ccncc1` [2-[[4-(2-methylphenyl)-5-pyridin-4-yl-1,2,4-triazol-3-yl]sulfanyl]-1-(1,2,5-trimethylpyrrol-3-yl)ethanone], with 10 µM. Same read-out and setting: then `O=C(CSc1nnc(Cc2csc(Nc3cccc(Cl)c3)n2)o1)N1CCc2ccccc21` [2-[[5-[[2-(3-chloroanilino)-1,3-thiazol-4-yl]methyl]-1,3,4-oxadiazol-2-yl]sulfanyl]-1-(2,3-dihydroindol-1-yl)ethanone], with greater than 95 µM; and `Cc1ccc(-c2nc(CSCC(=O)N3CCN(c4ccccn4)CC3)c(C)o2)cc1` [2-[[5-methyl-2-(4-methylphenyl)-1,3-oxazol-4-yl]methylsulfanyl]-1-(4-pyridin-2-ylpiperazin-1-yl)ethanone], with 5.51 µM.

As to `CCN(CC)C(=O)CS/C(=N/C#N)Nc1ccccc1F` [2-[[N-cyano-N'-(2-fluorophenyl)amidino]thio]-N,N-diethyl-acetamide], the EC50 is greater than 95 µM.

In turn, `Clc1ccc(OCc2nnc(SCc3nc4ccccc4[nH]3)n2Cc2ccco2)cc1` [2-[[[5-[(4-chlorophenoxy)methyl]-4-(2-furanylmethyl)-1,2,4-triazol-3-yl]thio]methyl]-1H-benzimidazole] came in with an EC50 of 7.6 µM.

The test is the same for the next values; noted with them: inactive by the depositor's call.
`Cc1cc(C(=O)CN2C(=O)c3ccccc3C2=O)c(C)n1Cc1cccs1` [2-[2-[2,5-dimethyl-1-(2-thenyl)pyrrol-3-yl]-2-keto-ethyl]isoindoline-1,3-quinone] yielded an EC50 of 17.4 µM. For the molecule `CCOC(=O)Cc1csc(NC(=O)c2ccc(Br)s2)n1` [2-[2-[(5-bromothiophene-2-carbonyl)amino]thiazol-4-yl]acetic acid ethyl ester], it took 13.8 µM to reach a half-maximal effect (EC50). Still for that read-out and setting: then `CC1CCN(S(=O)(=O)c2ccc3c(c2)oc(=O)n3CC(=O)NCc2ccc3c(c2)OCO3)CC1` [2-[2-keto-6-(4-methylpiperidino)sulfonyl-1,3-benzoxazol-3-yl]-N-piperonyl-acetamide], with 12.2 µM; and `COc1ccc(OCCCSc2ncccn2)cc1` [2-[3-(4-methoxyphenoxy)propylsulfanyl]pyrimidine], with 57.3 µM; and `CCOC(=O)c1sc2nc(NC(=O)C(C)(C)C)sc2c1C` [2-[(2,2-dimethyl-1-oxopropyl)amino]-6-methyl-5-thieno[2,3-d]thiazolecarboxylic acid ethyl ester], with 12 µM.

Consider `Clc1ccc(CSc2nnc(-c3ccncc3)o2)c(Cl)c1` [2-[(2,4-dichlorobenzyl)thio]-5-(4-pyridyl)-1,3,4-oxadiazole], for which the EC50 came out at 41.8 µM. `N#Cc1nc(COc2ccc(Cl)cc2Cl)oc1N1CCN(c2ccccc2)CC1` [2-[(2,4-dichlorophenoxy)methyl]-5-(4-phenyl-1-piperazinyl)-4-oxazolecarbonitrile] yielded an EC50 of 13.9 µM. The same measure, in the same setting: then `Cc1ccc2nc(NC(=O)CSc3nc4c(c(=O)n3C)SC(C)C4)sc2c1` (stereo unspecified) [2-[(3,6-dimethyl-4-oxidanylidene-6,7-dihydrothieno[3,2-d]pyrimidin-2-yl)sulfanyl]-N-(6-methyl-1,3-benzothiazol-2-yl)ethanamide], with 13.2 µM; and `O=C(CSc1nnc(-c2ccc(Cl)cc2)n1Cc1ccco1)c1cccs1` [2-[[5-(4-chlorophenyl)-4-(2-furanylmethyl)-1,2,4-triazol-3-yl]thio]-1-thiophen-2-ylethanone], with 17.3 µM. Still for that read-out and setting: the same measure for `Nn1c(Nc2ccccc2)nc2sc3c(c2c1=O)CCC3` [2-amino-3-anilino-7,8-dihydro-6H-cyclopenta[2,3]thieno[2,4-b]pyrimidin-1-one]: 16.4 µM.

Broadly, the EC50 is the concentration needed to bring the measured effect to its halfway point. Lower therefore signals greater potency.
